Results: ChEMBL document CHEMBL1287687, “5-benzyloxytryptamine as an antagonist of TRPM8” (Bioorg Med Chem Lett, 2010)
Activity calls are given as the source filed them. The calls are words filed in the database; no cut-off is given here.

Assays:
[1] = target: T1, Transient receptor potential cation channel subfamily M member 8 (Homo sapiens, UniProt Q7Z2W7); assay: Antagonist activity at human TRPM8 receptor expressed in human T-REx-293 cells assessed as inhibition of menthol-induced 45calcium influx treated 5 mins before menthol challenge measured after 5 mins; assay type: functional, cell-based, HEK293
Target sequence in this assay (Q7Z2W7 whole entry): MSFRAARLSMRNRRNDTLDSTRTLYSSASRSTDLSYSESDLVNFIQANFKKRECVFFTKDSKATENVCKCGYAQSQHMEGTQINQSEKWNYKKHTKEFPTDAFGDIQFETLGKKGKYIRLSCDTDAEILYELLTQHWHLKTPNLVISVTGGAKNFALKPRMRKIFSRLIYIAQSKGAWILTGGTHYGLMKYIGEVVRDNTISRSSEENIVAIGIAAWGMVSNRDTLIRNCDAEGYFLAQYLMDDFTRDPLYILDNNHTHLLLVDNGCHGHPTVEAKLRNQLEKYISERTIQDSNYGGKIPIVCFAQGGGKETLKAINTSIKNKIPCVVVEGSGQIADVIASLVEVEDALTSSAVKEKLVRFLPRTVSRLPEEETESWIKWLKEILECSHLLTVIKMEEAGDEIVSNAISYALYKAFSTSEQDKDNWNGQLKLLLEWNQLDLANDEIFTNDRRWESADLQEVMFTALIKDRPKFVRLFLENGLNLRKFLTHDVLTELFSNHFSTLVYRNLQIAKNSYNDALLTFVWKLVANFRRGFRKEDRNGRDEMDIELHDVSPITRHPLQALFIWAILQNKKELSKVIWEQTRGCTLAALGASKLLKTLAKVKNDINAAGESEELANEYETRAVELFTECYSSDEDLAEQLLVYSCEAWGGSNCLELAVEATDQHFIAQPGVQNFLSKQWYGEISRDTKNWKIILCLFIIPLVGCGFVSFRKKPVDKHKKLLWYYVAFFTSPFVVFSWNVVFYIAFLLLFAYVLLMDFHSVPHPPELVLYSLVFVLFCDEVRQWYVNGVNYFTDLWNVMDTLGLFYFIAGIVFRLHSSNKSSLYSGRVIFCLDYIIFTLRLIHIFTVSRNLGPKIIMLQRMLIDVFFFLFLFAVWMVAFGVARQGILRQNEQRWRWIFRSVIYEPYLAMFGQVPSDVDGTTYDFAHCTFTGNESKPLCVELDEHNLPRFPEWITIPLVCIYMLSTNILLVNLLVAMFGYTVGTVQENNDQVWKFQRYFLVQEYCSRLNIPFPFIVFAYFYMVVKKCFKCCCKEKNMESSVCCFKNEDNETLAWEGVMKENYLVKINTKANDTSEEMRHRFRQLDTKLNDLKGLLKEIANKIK

[2] = target: T1, Transient receptor potential cation channel subfamily M member 8; assay: Antagonist activity at human TRPM8 receptor expressed in human T-REx-293 cells assessed as inhibition of icilin-induced 45calcium influx treated 5 mins before icilin challenge measured after 5 mins; assay type: functional, cell-based, HEK293
Target sequence in this assay (Q7Z2W7 whole entry): as above

[3] = target: Transient receptor potential cation channel subfamily V member 1 (Homo sapiens) (UniProt Q8NER1); assay: Inhibition of TRPV1 receptor up to 10 uM
Transient receptor potential cation channel subfamily V member 1 (Homo sapiens), sequence (Q8NER1 whole entry): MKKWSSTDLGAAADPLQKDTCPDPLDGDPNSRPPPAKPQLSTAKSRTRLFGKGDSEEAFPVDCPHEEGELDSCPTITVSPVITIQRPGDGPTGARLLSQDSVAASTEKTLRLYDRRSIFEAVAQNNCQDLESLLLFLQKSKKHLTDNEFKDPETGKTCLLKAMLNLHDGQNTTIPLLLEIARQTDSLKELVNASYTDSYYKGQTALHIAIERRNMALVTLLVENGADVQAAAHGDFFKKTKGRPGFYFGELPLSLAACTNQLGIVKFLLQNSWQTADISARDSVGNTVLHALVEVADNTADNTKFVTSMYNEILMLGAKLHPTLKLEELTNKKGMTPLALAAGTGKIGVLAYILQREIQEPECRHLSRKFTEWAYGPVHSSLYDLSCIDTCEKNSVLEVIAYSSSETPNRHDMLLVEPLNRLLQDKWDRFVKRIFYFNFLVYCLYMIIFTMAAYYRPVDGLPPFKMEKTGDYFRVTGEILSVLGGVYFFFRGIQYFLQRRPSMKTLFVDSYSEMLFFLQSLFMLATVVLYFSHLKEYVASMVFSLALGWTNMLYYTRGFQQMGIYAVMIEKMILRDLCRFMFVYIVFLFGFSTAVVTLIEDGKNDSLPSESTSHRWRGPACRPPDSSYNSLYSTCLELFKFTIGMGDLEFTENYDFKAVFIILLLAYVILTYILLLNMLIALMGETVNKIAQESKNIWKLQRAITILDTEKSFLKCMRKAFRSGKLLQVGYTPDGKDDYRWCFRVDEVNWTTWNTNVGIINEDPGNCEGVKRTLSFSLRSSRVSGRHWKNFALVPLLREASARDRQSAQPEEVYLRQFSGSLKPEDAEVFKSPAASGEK

[4] = target: Transient receptor potential cation channel subfamily A member 1 (Homo sapiens) (UniProt O75762); assay: Inhibition of TRPA1 receptor up to 10 uM
Transient receptor potential cation channel subfamily A member 1 (Homo sapiens), sequence (O75762 whole entry): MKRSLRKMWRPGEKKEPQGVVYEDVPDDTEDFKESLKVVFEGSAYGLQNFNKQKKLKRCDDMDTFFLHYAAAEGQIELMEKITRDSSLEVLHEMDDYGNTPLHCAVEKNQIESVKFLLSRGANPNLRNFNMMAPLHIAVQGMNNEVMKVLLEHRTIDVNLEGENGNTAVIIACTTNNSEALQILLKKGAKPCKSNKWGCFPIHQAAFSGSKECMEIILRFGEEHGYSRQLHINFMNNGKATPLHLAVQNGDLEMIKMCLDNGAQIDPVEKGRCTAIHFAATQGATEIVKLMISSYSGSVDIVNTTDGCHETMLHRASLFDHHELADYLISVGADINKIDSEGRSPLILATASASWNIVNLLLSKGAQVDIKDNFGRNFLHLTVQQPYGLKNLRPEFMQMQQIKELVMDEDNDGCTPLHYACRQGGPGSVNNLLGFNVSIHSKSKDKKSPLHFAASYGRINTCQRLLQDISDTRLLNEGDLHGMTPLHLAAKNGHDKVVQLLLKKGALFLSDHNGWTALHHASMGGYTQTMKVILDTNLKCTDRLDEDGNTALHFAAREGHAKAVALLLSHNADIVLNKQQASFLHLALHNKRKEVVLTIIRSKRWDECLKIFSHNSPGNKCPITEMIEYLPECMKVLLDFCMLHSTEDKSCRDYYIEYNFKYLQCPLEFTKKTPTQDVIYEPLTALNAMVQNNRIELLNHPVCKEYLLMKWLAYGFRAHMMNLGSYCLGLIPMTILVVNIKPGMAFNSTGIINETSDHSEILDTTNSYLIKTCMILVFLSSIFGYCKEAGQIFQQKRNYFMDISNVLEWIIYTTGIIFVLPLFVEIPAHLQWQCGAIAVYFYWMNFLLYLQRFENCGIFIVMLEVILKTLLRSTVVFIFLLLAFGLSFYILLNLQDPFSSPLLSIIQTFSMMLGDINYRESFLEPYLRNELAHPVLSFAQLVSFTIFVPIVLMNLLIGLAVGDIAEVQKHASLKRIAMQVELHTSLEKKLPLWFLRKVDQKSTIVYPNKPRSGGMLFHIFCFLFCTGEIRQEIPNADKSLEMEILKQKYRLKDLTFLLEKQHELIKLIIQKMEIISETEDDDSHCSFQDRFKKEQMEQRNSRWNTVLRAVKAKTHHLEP

[5] = target: Transient receptor potential cation channel subfamily V member 4 (Homo sapiens) (UniProt Q9HBA0); assay: Inhibition of TRPV4 receptor up to 10 uM
Transient receptor potential cation channel subfamily V member 4 (Homo sapiens), sequence (Q9HBA0 whole entry): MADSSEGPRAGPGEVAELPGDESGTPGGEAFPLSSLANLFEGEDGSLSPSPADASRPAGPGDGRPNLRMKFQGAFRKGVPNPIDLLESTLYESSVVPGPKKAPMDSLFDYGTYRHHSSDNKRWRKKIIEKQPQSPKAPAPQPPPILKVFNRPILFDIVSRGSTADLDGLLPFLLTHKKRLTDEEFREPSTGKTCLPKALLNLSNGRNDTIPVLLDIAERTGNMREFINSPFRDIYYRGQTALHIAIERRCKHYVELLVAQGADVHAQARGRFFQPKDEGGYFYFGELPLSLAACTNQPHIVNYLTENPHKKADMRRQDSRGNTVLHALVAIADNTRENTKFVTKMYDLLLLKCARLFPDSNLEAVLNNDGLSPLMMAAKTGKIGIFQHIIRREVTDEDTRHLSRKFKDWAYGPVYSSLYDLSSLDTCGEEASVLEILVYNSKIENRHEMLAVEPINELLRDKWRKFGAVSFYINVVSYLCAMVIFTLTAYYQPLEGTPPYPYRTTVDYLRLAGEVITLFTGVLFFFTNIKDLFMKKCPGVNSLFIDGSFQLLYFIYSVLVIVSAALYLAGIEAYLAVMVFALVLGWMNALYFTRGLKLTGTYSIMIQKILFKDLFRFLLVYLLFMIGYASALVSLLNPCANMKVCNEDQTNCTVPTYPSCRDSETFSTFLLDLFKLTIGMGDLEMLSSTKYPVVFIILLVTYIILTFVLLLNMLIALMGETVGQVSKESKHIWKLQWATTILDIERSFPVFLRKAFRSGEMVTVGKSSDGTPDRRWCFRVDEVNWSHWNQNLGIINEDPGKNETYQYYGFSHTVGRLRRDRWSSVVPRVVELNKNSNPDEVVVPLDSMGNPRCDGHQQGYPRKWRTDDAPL

[6] = target: T1, Transient receptor potential cation channel subfamily M member 8; conditions: HEK293, 1 uM
Target sequence in this assay (Q7Z2W7 whole entry, looked up): as the sequence (Q7Z2W7 whole entry) above
Description: Antagonist activity at human TRPM8 receptor expressed in HEK cells assessed as inhibition of WS-12-stimulated current at 1 uM pretreated for 2 mins by patch clamp assay

[7] = target: T1, Transient receptor potential cation channel subfamily M member 8; assay: Antagonist activity at human TRPM8 receptor expressed in HEK cells assessed as inhibition of WS-12-stimulated current at 100 uM pretreated for 2 mins by patch clamp assay; assay type: functional, cell-based; conditions: HEK293
Target sequence in this assay (Q7Z2W7 whole entry, looked up): as the sequence (Q7Z2W7 whole entry) above

Structure (SMILES) | IC50 ([1]; read-out: IC50) [µM] | IC50 [2] [µM] | also measured
NCCc1c[nH]c2ccc(Cl)cc12 | 21.5 | 32.2 | 
NCCc1c[nH]c2ccc(Br)cc12 | 22.7 | 30.4 | 
N#CCc1c[nH]c2ccc(OCc3ccccc3)cc12 |  |  | IC50 ([1]; hek293): Not Active
NCCc1c[nH]c2c(OCc3ccccc3)cccc12 | 3.34 | 8.93 | 
NCCc1c[nH]c2ccc(OCc3ccccc3)cc12 [5-BENZYLOXYTRYPTAMINE] | 0.34 | 0.66 | inhibition [3]: inactive; inhibition [4]: inactive; inhibition [5]: inactive; inhibition [6]: Active
COc1ccc2[nH]cc(CCN)c2c1 [5-METHOXYTRYPTAMINE] | 12.4 | 11.6 | 
CN(C)CCc1c[nH]c2ccc(OCc3ccccc3)cc12 | 5.63 | 5.96 | 
CCOC(=O)NCCc1c[nH]c2ccc(OCc3ccccc3)cc12 | 21.6 | 28.8 | 
NCCc1c[nH]c2ccc(F)cc12 | 12.3 | 13.1 | 
NCCc1c[nH]c2ccc(O)cc12 |  |  | inhibition [7]: inactive
Cc1[nH]c2ccc(OCc3ccccc3)cc2c1CCN | 1.5 | 2.36 | 
c1ccc(COc2ccc3[nH]ccc3c2)cc1 |  |  | IC50 ([1]; hek293): Not Active
